# Measured values as given in US4743611A, “Naphthalenylsulfonylimidazolidinediones and their thioxo analogs useful as aldose reductase inhibitors” (American Home Products Corp., priority 1987, dated 1988).
# Like-named read-outs stand apart in the source and are kept apart here.
# Experiments:
# aldose reductase [1] = biological target: T1, aldose reductase (Bos taurus, UniProt P16116); test: in vitro inhibition of aldose reductase (enzyme from bovine lens, modified Hayman and Kinoshita procedure); assay type: biochemical; details: read-out: % inhibition in vitro; for inhibition at 0.1 µM: 10^-7
# T1 construct: preparation of the enzyme from bovine lens; from tissue; host or cells: bovine lens
# From the text: In the present case the procedure of Hayman and Kinoshita was modified in that the final chromatography step was omitted in the preparation of the enzyme from bovine lens.
# aldose reductase [2] = biological target: T2, aldose reductase (Rattus norvegicus, UniProt P07943); test: lowering of dulcitol accumulation in vivo in lens, sciatic nerve and diaphragm of galactosemic rats; design: species or system rat (Sprague-Dawley); details: for % lowering dulcitol accumulation in vivo, L: lens
# T2 construct: diminish the accumulation of dulcitol in the lenses, sciatic nerves and diaphragm of rats fed galactose; from tissue; host or cells: lens, sciatic nerve and diaphragm of living male Sprague-Dawley rats
# From the text: Such experiments are exemplified hereinbelow after the listing of the following general comments pertaining to these experiments:
# (a) Four or more groups of six male rats, 50-70 g, Sprague-Dawley strain, were used. The first group, the control group, was fed a mixture of laboratory chow (rodent Laboratory Chow, Purina) and glucose at 20% (w/w %) concentration. The untreated galactosemic group was fed a similar diet in which galactose is substituted for glucose. The third group was fed a diet prepared by mixing a given amount of the test compound with the galactose containing diet. The concentration of galactose in the diet of the treated groups was the same as that for the untreated galactosemic group.
# (b) After four days, the animals were killed by decapitation. The eyeballs were removed and punctured with a razor blade; the freed lenses were rolled gently on filter paper and weighed. The sciatic nerves were dissected as completely as possible and weighed. Both tissues when frozen can be kept up to two weeks before being analyzed for dulcitol.
# Only two minor reagent changes were made: (a) The rinsing mixture was an aqueous 5% (w/v) trichloroacetic acid solution and (b) the stock solution was prepared by dissolving 25 mg of dulcitol in 100 ml of an aqueous trichloroacetic acid solution. [N.B.: For each experiment the average value found in the tissue from rats fed the glucose diet was subtracted from the individual values found in the corresponding tissue in galactose-fed rats to obtain the amount of polyol accumulated.]
# The figures under L, N and D represent the percentage decrease of dulcitol accumulation in the tissues of the lens, sciatic nerve and diaphragm, respectively, for treated rats as compared to untreated rats.
# [3] = diaphragm, 24 mg/kg/day in diet
Compound,inhibition at 10 µM (aldose reductase [1]; 10^-5),inhibition at 1 µM (aldose reductase [1]; 10^-6),inhibition at 0.1 µM (aldose reductase [1]),other results
"O=C1CN(S(=O)(=O)c2cccc3cc(Br)ccc23)C(=O)N1 [Example 12, 1-[(6-bromo-1-naphthalenyl)sulfonyl]-2,4-imidazolidinedione]",89%,70%,23%,"% lowering dulcitol accumulation in vivo, D (aldose reductase [2]; [3]): 0%; % lowering dulcitol accumulation in vivo, L (aldose reductase [2]; 24 mg/kg/day in diet): 0%"
"O=C1CN(S(=O)(=O)c2cccc3ccc(Br)cc23)C(=S)N1 [Example 13, 1-[(7-bromo-1-naphthalenyl)sulfonyl]-2-thioxo-4-imidazolidinone]",–,16%,–,inhibition at 10 µM (aldose reductase [1]): 46%
"O=C1CN(S(=O)(=O)c2cccc3ccc(Br)cc23)C(=O)N1 [Example 14, 1-[(7-bromo-1-naphthalenyl)sulfonyl]-2,4-imidazolidinedione]",–,–,36%,"% lowering dulcitol accumulation in vivo, D (aldose reductase [2]; diaphragm, 23 mg/kg/day in diet): 50%; % lowering dulcitol accumulation in vivo, L (aldose reductase [2]; 23 mg/kg/day in diet): 0%; inhibition at 1 µM (aldose reductase [1]): 79%; inhibition at 10 µM (aldose reductase [1]): 93%"
"O=C1CN(S(=O)(=O)c2cccc3c(Cl)cccc23)C(=S)N1 [Example 15, 1-[(5-chloro-1-naphthalenyl)sulfonyl]-2-thioxo-4-imidazolidinone]",43%,14%,–,–
"O=C1CN(S(=O)(=O)c2cccc3c(Cl)cccc23)C(=O)N1 [Example 16, 1-[(5-chloro-1-naphthalenyl)sulfonyl]-2,4-imidazolidinedione]",85%,–,36%,"% lowering dulcitol accumulation in vivo, D (aldose reductase [2]; diaphragm, 25 mg/kg/day in diet): 82%; % lowering dulcitol accumulation in vivo, L (aldose reductase [2]; 25 mg/kg/day in diet): 44%; inhibition at 1 µM (aldose reductase [1]): 79%"
"O=C1CN(S(=O)(=O)c2cccc3c(I)cccc23)C(=O)N1 [Example 18, 1-[(5-iodo-1-naphthalenyl)sulfonyl]-2,4-imidazolidinedione]",–,–,59%,"% lowering dulcitol accumulation in vivo, D (aldose reductase [2]; [3]): 74.0%; % lowering dulcitol accumulation in vivo, L (aldose reductase [2]; 24 mg/kg/day in diet): 33%"
"COc1ccc2c(C(=S)N(C)CC(=O)O)cccc2c1C(F)(F)F [tolrestat, N-[[6-methoxy-5-(trifluoromethyl)-1-naphthalenyl]thioxomethyl]-N-methylglycine, reference compound]",–,–,–,"% lowering dulcitol accumulation in vivo, D (aldose reductase [2]; rat, in vivo, 11 mg/kg/day): 89"

# More lines, main results first:
inhibition at 10 µM (aldose reductase [1]; 10^-5),inhibition at 1 µM (aldose reductase [1]; 10^-6),Compound,inhibition at 0.1 µM (aldose reductase [1]),other results
10%,9%,"O=C1CN(S(=O)(=O)c2cccc3cc(Br)ccc23)C(=S)N1 [Example 11, 1-[(6-bromo-1-naphthalenyl)sulfonyl]-2-thioxo-4-imidazolidinone]",–,–
58%,24%,"O=C1CN(S(=O)(=O)c2cccc3c(I)cccc23)C(=S)N1 [Example 17, 1-[(5-iodo-1-naphthalenyl)sulfonyl]-2-thioxo-4-imidazolidinone]",–,"% lowering dulcitol accumulation in vivo, D (aldose reductase [2]; diaphragm, 26 mg/kg/day in diet): 34.0%; % lowering dulcitol accumulation in vivo, L (aldose reductase [2]; 26 mg/kg/day in diet): 0.0%"
13%,9%,"O=C1CN(S(=O)(=O)c2ccc3c(Br)cccc3c2)C(=S)N1 [Example 19, 1-[(5-Bromo-2-naphthalenyl)sulfonyl]-2-thioxo-4-imidazolidinone]",–,–
89%,77%,"O=C1CN(S(=O)(=O)c2ccc3c(Br)cccc3c2)C(=O)N1 [Example 20, 1-[(5-Bromo-2-naphthalenyl)sulfonyl]-2,4-imidazolidinedione]",24%,"% lowering dulcitol accumulation in vivo, L (aldose reductase [2]; 24 mg/kg/day in diet): N.S."
